# Assays:
# [1] = tested on: Proteus vulgaris IAM-1025; assay: in vitro antimicrobial activity, two-fold agar-plate dilution method (MIC); type: cell-based; details: IAM1025, heart infusion agar, 37° C., 20 hours
# Description: (§1) In vitro antimicrobial activity was determined by the two-fold agar-plate dilution method as described below.
# (§2) One loopful of an overnight culture of each test strain in Tripticase-soy broth (approximately 10^8 viable cells per ml) was streaked on heart infusion agar (HI-agar) containing graded concentrations of antimicrobial agents, and the minimal inhibitory concentration (MIC) was expressed in term of μg/ml after incubation at 37° C. for 20 hours.
# [2] = tested on: Pseudomonas aeruginosa NCTC-10490; assay: as above; type: cell-based; details: NCTC10490, heart infusion agar, 37° C., 20 hours
# Description: as §1, §2
Compound,MIC [1] [µg/mL],MIC [2] [µg/mL]
"CC(O/N=C(\C(=O)NC1C(=O)N2C(C(=O)O)=CCSC12)c1nc(N)sc1Cl)C(=O)O (stereo not drawn) [Compound 1, 7-[2-(2-amino-5-chlorothiazol-4-yl)-2-(1-carboxyethoxyimino)acetamido]-3-cephem-4-carboxylic acid (syn isomer)]",0.05,0.78
"C#CCO/N=C(\C(=O)NC1C(=O)N2C(C(=O)O)=C(CSc3nncs3)CSC12)c1nc(N)sc1Cl (stereo not drawn) [Compound 2, 7-[2-(2-amino-5-chlorothiazol-4-yl)-2-propargyloxyiminoacetamido]-3-(1,3,4-thiadiazol-2-yl)thiomethyl-3-cephem-4-carboxylic acid (syn isomer)]",1.56,0.78
"Nc1nc(/C(=N/OCC(=O)O)C(=O)NC2C(=O)N3C(C(=O)O)=C(CSc4nncs4)CSC23)c(Cl)s1 (stereo not drawn) [Compound 3, 7-[2-(2-amino-5-chlorothiazol-4-yl)-2-carboxymethoxyiminoacetamido]-3-(1,3,4-thiadiazol-2-yl)thiomethyl-3-cephem-4-carboxylic acid (syn isomer)]",0.025,0.78
"C=CCO/N=C(\C(=O)NC1C(=O)N2C(C(=O)O)=C(CSc3nncs3)CSC12)c1nc(N)sc1Cl (stereo not drawn) [Compound 4, 7-[2-(2-amino-5-chlorothiazol-4-yl)-2-allyloxyiminoacetamido]-3-(1,3,4-thiadiazol-2-yl)thiomethyl-3-cephem-4-carboxylic acid (syn isomer)]",1.56,0.78

# The next lines start with the values.
MIC [1] [µg/mL],MIC [2] [µg/mL],Compound
0.39,0.39,"Nc1nc(/C(=N/OC2C=CCC2)C(=O)NC2C(=O)N3C(C(=O)O)=C(CSc4nncs4)CSC23)c(Cl)s1 (stereo not drawn) [Compound 5, 7-[2-(2-amino-5-chlorothiazol-4-yl)-2-(2-cyclopenten-1-yl)oxyiminoacetamido]-3-(1,3,4-thiadiazol-2-yl)thiomethyl-3-cephem-4-carboxylic acid (syn isomer)]"
0.05,0.78,"Nc1nc(/C(=N/OCC(=O)O)C(=O)NC2C(=O)N3C(C(=O)O)=C(Cl)CSC23)c(Cl)s1 (stereo not drawn) [Compound 6, 7-[2-(2-amino-5-chlorothiazol-4-yl)-2-carboxymethoxyiminoacetamido]-3-chloro-3-cephem-4-carboxylic acid (syn isomer)]"

# — patent publication US4596829A, “7-acylaminocephalosporanic acid derivatives and processes for the preparation thereof” (Fujisawa Pharmaceutical Co., Ltd., priority 1980, dated 1986)
